The data set relates to Salmonella typhimurium Ames mutagenicity, literature compiled. Briefly: DSSTox (CPDBAS) Carcinogenic Potency Database Salmonella Mutagenicity. The source says: The Carcinogenic Potency Database (CPDB) is a unique and widely used international resource of the results of over 6500 chronic, long-term animal cancer tests on over 1500 chemical substances. The CPDB provides easy access to the bioassay literature, with qualitative and quantitative analyses of both positive and negative experiments that have been published over the past 50 years in the general literature and by the National Cancer Institute/National Toxicology Program. The CPDB standardizes the diverse literature of cancer bioassays that vary widely in protocol, histopathological examination and nomenclature, and in the published author's choices of what information to provide in their papers. Results are reported in the CPDB for tests in rats, mice, hamsters, dogs, and nonhuman primates, and are based on the most positive result among all experiments for each sex-species. The DSSTox CPDBAS (all species) file incorporates data from the CPDB Summary Tables for the full list of over 1500 chemical substances tested in at least one species.
A chemical is classified within the CPDB as mutagenic, i.e. "active", in the Salmonella assay if it was evaluated overall as either "mutagenic" or "weakly mutagenic" by Zeiger [Zeiger, E. (1997) Genotoxicity Database. In: Gold and Zeiger, Eds. Handbook of Carcinogenic Potency and Genotoxicity Databases. Boca Raton, FL: CRC Press, pp. 687-729. http://potency.berkeley.edu/CRCbook.html] or as overall "positive" by the EPA Gene-Tox Program [Kier et al. (1986) Mutat. Res. 168: 69-240].

Calls of active or inactive are those of the source.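 The calls were made as follows: active = chemicals rated mutagenic or weakly mutagenic in the Salmonella bacterial test by one literature review, or positive overall by another; inconclusive = no clear call, values can overlap the other calls; inactive = the rest.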

For `Cc1ccccc1N`, the outcome was active.
For `COP(=O)(OC)C(O)C(Cl)(Cl)Cl` (stereo not given) the value was “active”; for `Cc1ccc(N=Nc2c(O)ccc3ccccc23)c([N+](=O)[O-])c1`, “active; inactive”; for `Cc1ccc(O)c(O)c1`, “inactive; active”.
Then `CCCCCCCC(=O)OCC(COC(=O)CCCCCCC)OC(=O)CCCCCCC`, with “active; inactive”.
For `CCC(Cl)CCC(Cl)C(Cl)CC(Cl)C(Cl)C(Cl)CCl` (stereo not given) the value was “inactive; active”; for `Nc1ncn[nH]1`, “inactive; active”; for `CN(C)C(=S)SSC(=S)N(C)C`, “active”.
`CN(C)[C@@H]1C(=O)C(C(N)=O)=C(O)[C@@]2(O)C(=O)C3=C(O)c4c(O)cccc4[C@@](C)(O)[C@H]3[C@H](O)[C@@H]12`: the result was inactive.
For `ClC=C(Cl)Cl` the value was “inactive; active”; for `O=C1OC(=O)c2ccccc21`, “inactive; active”; for `CN=[N+](C)[O-]`, “active”.
Then `c1ccoc1`, with “inactive”; and `CCOc1ccc(NC(C)=O)cc1[N+](=O)[O-]`, with “active; inactive”; and `CC(C)(Oc1ccc(C2CCCc3ccccc32)cc1)C(=O)O` (stereo not given), with “inactive”.
On to `C[C@]12C=CC(=O)C=C1CC[C@@H]1[C@@H]2[C@@H](O)C[C@@]2(C)[C@H]1CC[C@]2(O)C(=O)CO`, for which the outcome was “inactive; active”.
With `C[C@H]1CCCC(=O)CCC/C=C/c2cc(O)cc(O)c2C(=O)O1`, the outcome is “inactive; active”.
For `Cc1c(N(C)C)c(=O)n(-c2ccccc2)n1C` the value was “active”; for `O=C1CCCCC1`, “inactive; active”.
In the case of `C=CCc1ccc(OC)cc1`, the outcome was “inactive; active”.
Then `Cn1c(N)nc2ncc(-c3ccccc3)cc21`, with “active”; and `Cc1cc(O)c(C(C)(C)C)cc1Sc1cc(C(C)(C)C)c(O)cc1C`, with “inactive; active”; and `O=Nc1ccc(Nc2ccccc2)cc1`, with “active”.
As to `CC(=O)Nc1ccc(N=Nc2cc(C)ccc2O)cc1`, the result was active.
As for `ClC1=C(Cl)[C@]2(Cl)[C@@H]3[C@H]4C[C@H]([C@@H]5O[C@H]45)[C@@H]3[C@@]1(Cl)C2(Cl)Cl`, the outcome was “inactive; active”.
For the molecule `O=P(OCCCl)(OCCCl)OCCCl`, the result was inactive.
As for `NNCCO`, the outcome is “active; inactive”.
Consider `C[C@](N)(Cc1ccc(O)c(O)c1)C(=O)O`, for which the result was inactive.
For the molecule `COc1ccc(C(Cl)=C(c2ccc(OC)cc2)c2ccc(OC)cc2)cc1`, the outcome was inactive.
For `O=C(c1ccccc1)C(O)c1ccccc1` (stereo not given) the value was “inactive”; for `O=C(O)CC[N+](=O)[O-]`, “active; inactive”.
Then `Nc1ccc(S(=O)(=O)c2ccc(N)cc2)cc1`, with “inactive; active”; and `C=CC(=O)c1ccc2c(c1)OCO2`, with “inactive; active”.
Take `CC(C)(C)c1cc(O)ccc1O`: the result was inactive.
For `C=CCN=C=S` the value was “active”.
Then `CN(C)C(=O)Nc1cccc(C(F)(F)F)c1`, with “inactive”; and `CCOP(=S)(OCC)Oc1ccc([N+](=O)[O-])cc1`, with “inactive”; and `ClCc1ccccn1`, with “active”.
Then `CC(C)Oc1ccccc1OC(=O)N(C)N=O`, with “active”; and `CNc1ccc(N(CCO)CCO)cc1[N+](=O)[O-]`, with “active”; and `CC(=O)N(O)c1ccc2c(c1)Cc1ccccc1-2`, with “active; inactive”.
Consider `NC(=S)Nc1cccc2ccccc12`, for which the outcome was “active; inactive”.
Regarding `CCNC(=O)Nc1ncc([N+](=O)[O-])s1`, the outcome is “active; inactive”.
`C=CC1CC=CCC1` (stereo not given): the result was inactive.
As to `O=C1O[C@H]([C@H](O)CO)C(O)=C1O`, the result was inactive.
For `Cc1c(N)cccc1N` the value was “active; inactive”; for `O=C(Nc1nc(-c2ccc([N+](=O)[O-])o2)cs1)C(F)(F)F`, “active”.
As for `CCCN(CCC)N=O`, the result was active.
Then `Nc1ccc2c(c1)C(=O)c1ccccc1C2=O`, with “active”; and `C[N+](C)(C)CCCl`, with “inactive; active”.
For the molecule `CC(C)(c1ccc(O)cc1)c1ccc(O)cc1`, the result was inactive.
With `CC[C@H]1CN2CCc3cc(OC)c(OC)cc3[C@@H]2C[C@@H]1C[C@H]1NCCc2cc(OC)c(OC)cc21`, the outcome was “inactive; active”.
With `O=C(O)C(Cl)Cl`, the result was active.
As for `ClCC(Cl)Cl`, the outcome was inactive.
Then `Cc1cccc(N=Nc2ccc(N(C)C)cc2)c1`, with “active; inactive”; and `CCN(Cc1cccc(S(=O)(=O)O)c1)c1ccc(C(=C2C=CC(=[N+](CC)Cc3cccc(S(=O)(=O)O)c3)C=C2)c2ccc(O)cc2S(=O)(=O)[O-])cc1`, with “inactive; active”; and `CCC[CH2][Sn]([CH2]CCC)([O]C(C)=O)[O]C(C)=O`, with “inactive”.
For `Nc1cc(S(=O)(=O)[O-])cc2cc(S(=O)(=O)[O-])c(N=Nc3ccc(-c4ccc(N=Nc5c(S(=O)(=O)[O-])cc6cc(S(=O)(=O)[O-])cc(N)c6c5O)c(O)c4)cc3O)c(O)c12.[Cu].[Cu].[Na+].[Na+].[Na+].[Na+]` the value was “inactive; active”; for `CC(Cl)CCl` (stereo not given), “active; inactive”.
Then `O=P(OCC(Br)CBr)(OCC(Br)CBr)OCC(Br)CBr` (stereo not given), with “active”; and `ClC(Cl)=C(c1ccc(Cl)cc1)c1ccc(Cl)cc1`, with “inactive; active”.
As to `CN(C)C=O`, the result was inactive.
In the case of `Nc1c(Cl)cc(Cl)cc1Cl`, the outcome is “inactive; active”.
For `c1ccc(Nc2ccc3ccccc3c2)cc1` the value was “inactive; active”; for `C=CCOCC1CO1` (stereo not given), “active”; for `O=NN1CCCCCCCCCCCC1`, “active; inactive”.
Then `O=[N+]([O-])c1ccc(O)c([N+](=O)[O-])c1`, with “inactive”; and `Cc1ccc(S(=O)(=O)NC(=O)NN2CCCCCC2)cc1`, with “inactive; active”; and `O=C(O)/C=C/c1ccc(O)c(O)c1`, with “inactive”.
For the molecule `Cc1cc(=O)n(-c2ccccc2)n1C`, the outcome is “inactive; active”.
Then `O=C1C=CC(=O)C=C1`, with “inactive; active”; and `Nc1ccc(O)c([N+](=O)[O-])c1`, with “active”; and `OC[C@H]1O[C@@](CO)(O[C@H]2O[C@H](CO)[C@@H](O)[C@H](O)[C@H]2O)[C@@H](O)[C@@H]1O`, with “inactive; active”.
Then `CCN(Cc1cccc(S(=O)(=O)O)c1)c1ccc(C(=C2C=CC(=[N+](CC)Cc3cccc(S(=O)(=O)[O-])c3)C=C2)c2ccc(S(=O)(=O)O)cc2)cc1`, with “inactive; active”; and `CN(C)/N=N/c1nc[nH]c1C(N)=O`, with “active”.
As to `CNC(=O)CSP(=S)(OC)OC`, the outcome was active.
Then `Cc1ccc(C)c(N)c1`, with “active; inactive”; and `Oc1ccc(O)cc1`, with “inactive”; and `O=P1(N(CCCl)CCCl)NCCCO1` (stereo not given), with “active”.
For `C=CCc1ccc(O)c(OC)c1`, the result was inactive.
As for `ClCC(Cl)(Cl)Cl`, the outcome is “inactive; active”.
Then `CC(=O)Nc1nc(NC(C)=O)nc(-c2ccc([N+](=O)[O-])o2)n1`, with “active; inactive”.
Then `CN(C)c1ccc(N=Nc2ccccc2)cc1`, with “active; inactive”; and `Cc1ccc(N)cc1`, with “active”.
On to `CC(O)CCl` (stereo not given), for which the outcome was active.
For `Cc1cnc2ccc3c(nc(N)n3C)c2n1` the value was “active”; for `O=C1CCCO1`, “inactive; active”; for `CCCCCCc1ccc(O)cc1O`, “inactive; active”.
`c1ccc(NNc2ccccc2)cc1`: the result was active.
For `C=C1C/C(=C/C)C(=O)O[C@@H]2CCN3CC=C(COC(=O)[C@@]1(O)CO)[C@H]23` the value was “active; inactive”; for `ClC1=C(Cl)C2(Cl)C3C(Cl)C=CC3C1(Cl)C2(Cl)Cl` (stereo not given), “inactive; active”.
As for `C=CC#N`, the outcome was active.
Take `O=C1CN(/N=C/c2ccc([N+](=O)[O-])o2)C(=O)N1`: the result was active.
As to `O=NO`, the result was active.
For `O=C1NC(c2ccc([N+](=O)[O-])s2)Nc2ccccc21` (stereo not given) the value was “active”; for `[Cl-].[Cl-].[Sn+2]`, “inactive”; for `O=S1(=O)CC=CC1`, “inactive; active”.
As to `C=CC(=O)OCC`, the result was inactive.
In the case of `F`, the outcome was “inactive; active”.
For `O=C1OC(c2ccc(O)cc2)(c2ccc(O)cc2)c2ccccc21` the value was “inactive”.

(Values after PubChem BioAssay AID1194 (EPA DSSTox, 2008).)
